What all share (format): cell-based
The target in experiment [1] is T1, heteromeric KV7.3/KV7.5 channel (KCNQ3, KCNQ5) (Homo sapiens, UniProt O43525+Q9NR82).
T1 construct: host or cells: HEK293
In words: Automated patch-clamp counter-screening against KV7.3/KV7.5 channel. To be noted: HEK293 cells expressing Kv7.3/KV7.5; class by maximal shift in the Vhalf at 30 μM. As for the experimental part: Assessment of in vitro potency against KV7.3/KV7.5 channels
Counter-screening was also carried out against the heteromeric KV7.3/KV7.5 channel (KCNQ3, Uniprot ID 043525; KCNQ5, Uniprot ID Q9NR82). The cell line used was a stably transfected HEK293 cell line with constitutive Kv7.3 expression and tetracycline inducible KV7.5 expression supplied by Charles River Laboratories.
Cells were maintained in the following culture media: • DMEM/F-12 with GlutaMAX™ (Life Technologies 31331-028), • 10% Tet Systems FCS (Clonetech 631106), • 500 μg/ml Geneticin™ selective antibiotic (G418, Invitrogen 1013-027), • 5 μg/ml Blasticidin S HCl (InvivoGen ant-bl-5), and • 100 μg/ml Zeocin (InvivoGen: ant-zn-5).
(§1) Cell maintenance, preparation, recording conditions and voltage protocols were all identical to those above.
(§2) Analysis of Data for Assessment of Potency
(§3) 10 concentrations of test compounds were applied to individual wells in quadruplicate to assess potency as a 1 in 3 dilution series from the maximal concentration of 30 μM. The average shift in the voltage for half activation (Vhalf) for each concentration was used to generate concentration-response curves fitted with a 4-parameter logistic model to estimate the EC50 from the point of inflection of the curve and the maximal shift in the Vhalf from the top of the curve.
(§4) The lower the EC50 value, the higher the potency of the analyzed compound. The selectivity criteria is assigned on the basis of the maximal shift in the Vhalf at 30 μM. […] In Table 3, ND means that selectivity was not determined.
A general note: Patch clamp records ionic current or voltage across a cell membrane.

Experiment [2] has as its target T2, homomeric KV7.4 channel (KCNQ4) (Homo sapiens, UniProt P56696).
T2 construct: host or cells: CHO-K1
The experiment can be described thus: Automated patch-clamp (Qube) counter-screening assay against KV7.4 channel. To be noted: CHO-K1 cells expressing KV7.4; class by maximal shift in the Vhalf at 30 μM.
Text: Assessment of In Vitro Potency Against KV7.4 Channels
A counter-screening assay was also developed on the Qube against the homomeric KV7.4 channel (KCNQ4, Uniprot ID P56696). The cell line used was a stably transfected CHO-K1 with constitutive KV7.4 expression supplied by Charles River Laboratories.
CHO-K1 cells stably expressing KV7.4 channels were maintained in the following culture media: • Hams F-12 with GlutaMAX™ (Life Technologies 31765027), • 10% Fetal clone 2 serum (Perbio Science SH30066.03), and • 250 μg/ml Geneticin™ selective antibiotic (G418, Invitrogen 1013-027).
as §1, §2, §3, §4

The target of experiment [3] is T3, heteromeric KV7.2/KV7.3 channels (KCNQ2, KCNQ3) (Homo sapiens, UniProt O43525+O43526).
T3 construct: expressed in transfected cells; host or cells: CHO-K1
In words: Automated patch-clamp (Sophion Qube 384) potency assay against KV7.2/KV7.3 channels. To be noted: CHO-K1/Kv7.2/Kv7.3 cells; for pEC50: EC50 from concentration-response of shift in Vhalf, 10 concentrations up to 30 μM, read-out: Kv7.2/7.3 EC50; for Kv7.2/7.3 ΔV1/2: maximal shift in the Vhalf from the top of the curve.
Text: Assessment of In Vitro Potency Against KV7.2/KV7.3 Channels
An automated patch-clamp assay on the Sophion Qube 384 was developed for potency testing to identify small molecule activators of heteromeric KV7.2/KV7.3 channels (KCNQ2, Uniprot ID 043526; KCNQ3, Uniprot 043525).
The cell line used was a stably transfected CHO-K1 cell line with constitutive KV7.2/KV7.3 expression.
CHO-K1/Kv7.2/Kv7.3 cells were maintained in the following culture media: • DMEM/F-12 with GlutaMAX™ (Gibco 31331-028), • 10% Fetal clone 2 serum (Perbio Science SH30066.03), • 1 mg/ml Geneticin™ selective antibiotic (G418, Invitrogen 1013027), and • 5 μg/ml BlasticidinS HCl (Invivogen Ant-bl-5).
On the day of the experiment, cells were resuspended in serum free media, counted and diluted to a final concentration of 3.5×10^6 cells per ml of media.
Cells were then placed onto the Sophion Qube 384 and rested for a minimum of 1 hour.
The following solutions were used for recording: • extracellular solution (in mM): 145 NaCl, 4 KCl, 1 MgCl2, 2 CaCl2), 10 HEPES, 10 glucose, pH 7.4, 315-320 mOsm. • intracellular solution (in mM): 120 KCl, 5.74 CaCl2), 1.75 MgCl2, 10 EGTA, 10 HEPES, 5 Na2ATP, pH 7.2, adjusted to 315 mOsm with sucrose.
After establishing the whole-cell configuration, cells were held at −80 mV throughout the experiment. A current-voltage (I-V) protocol stepping from −100 to +20 mV for 1 second was applied to measure Kv7.2/Kv7.3 currents, each step was followed by a 200 ms pulse to 0 mV to measure the tail currents. From the I-V protocol a Boltzmann fit was applied to generate activation curves. Data were sampled at 25 kHz and filtered at 5 kHz (Bessel). Data were produced using multihole QChips. The I-V protocol was applied several times to establish the response in control conditions (typically 0.3% DMSO) and in the presence of the test compound.
Data were reviewed in Sophion Analyser version 6.5.2 (Sophion Bioscience) for recording quality and filters were applied to remove any failed wells. Leak subtraction was applied to all recordings. Data filters for multihole QChips were typically: seal resistance>4 MΩ, capacitance >20 pF, baseline VHalf between 0 to −40 mV, baseline holding current between −2 to 2 nA, baseline steady state current at 20 mV >4 nA unless otherwise stated.
as §2, §3, §4

Structures are written as SMILES. pEC50: −log10 of the molar value.

On to `O=C(NCc1ccnc(OCC(F)(F)F)c1)NCC1CCc2ccccc21` (stereo not drawn) [Compound 157], for which the Kv7.3/7.5 selectivity criteria result in experiment [1] is listed as “A (Selective compounds showed Kv7.4 and/or Kv7.3/7.5 ΔV1/2 equal to or lower than 15 mV (letter A in table 3))”. Moreover, the Kv7.4 selectivity criteria entry in experiment [2] is recorded as “A (Selective compounds showed Kv7.4 and/or Kv7.3/7.5 ΔV1/2 equal to or lower than 15 mV (letter A in table 3))”. In experiment [3], the pEC50 was 5.40 and the “Kv7.2/7.3 ΔV1/2” value was found to be 18.8 mV.

Consider `O=C(NCc1ccnc(OCC(F)(F)F)c1)N[C@@H]1CCc2cc(F)c(F)cc21` [Compound 119], for which the Kv7.3/7.5 selectivity criteria entry in experiment [1] is recorded as “B (Non-selective compounds showed Kv7.4 and/or Kv7.3/7.5 ΔV1/2 higher than 15 mV (letter B in table 3))”. For the same molecule, the Kv7.4 selectivity criteria result in experiment [2] is on record as “A (Selective compounds showed Kv7.4 and/or Kv7.3/7.5 ΔV1/2 equal to or lower than 15 mV (letter A in table 3))”. In experiment [3], the pEC50 was 5.97 and the “Kv7.2/7.3 ΔV1/2” value was determined as 36.41 mV.

On to `CC(C)(C)[C@@H](O)CNC(=O)NCc1ccnc(OCC(F)(F)C(F)(F)F)c1` [Compound 73, (R)-1-(2-Hydroxy-3,3-dimethylbutyl)-3-((2-(2,2,3,3,3-pentafluoropropoxy)pyridin-4-yl)methyl)urea], for which the Kv7.3/7.5 selectivity criteria result in experiment [1] is “A (Selective compounds showed Kv7.4 and/or Kv7.3/7.5 ΔV1/2 equal to or lower than 15 mV (letter A in table 3))”. In experiment [2], the Kv7.4 selectivity criteria result is “A (Selective compounds showed Kv7.4 and/or Kv7.3/7.5 ΔV1/2 equal to or lower than 15 mV (letter A in table 3))”. For the same molecule, in experiment [3], the pEC50 is 5.61 and the “Kv7.2/7.3 ΔV1/2” value was determined as 26.35 mV.

For `O=C(NCc1ccnc(OCC(F)(F)F)c1)N[C@@H]1CCCOc2ccccc21` [Compound 150], the Kv7.3/7.5 selectivity criteria result in experiment [1] was “A (Selective compounds showed Kv7.4 and/or Kv7.3/7.5 ΔV1/2 equal to or lower than 15 mV (letter A in table 3))”. Further, the Kv7.4 selectivity criteria entry in experiment [2] is listed as “B (Non-selective compounds showed Kv7.4 and/or Kv7.3/7.5 ΔV1/2 higher than 15 mV (letter B in table 3))”. In addition, in experiment [3], the pEC50 was 5.88 and the “Kv7.2/7.3 ΔV1/2” value is 30.15 mV.

With `O=C(NCc1ccnc(OCC(F)(F)F)c1)N[C@H]1CCc2ccc(C(F)(F)F)cc21` [Compound 163], the Kv7.3/7.5 selectivity criteria entry in experiment [1] was “A (Selective compounds showed Kv7.4 and/or Kv7.3/7.5 ΔV1/2 equal to or lower than 15 mV (letter A in table 3))”. Also, the Kv7.4 selectivity criteria result in experiment [2] is listed as “A (Selective compounds showed Kv7.4 and/or Kv7.3/7.5 ΔV1/2 equal to or lower than 15 mV (letter A in table 3))”. For the same molecule, in experiment [3], the pEC50 was 5.97 and the “Kv7.2/7.3 ΔV1/2” value was found to be 27.41 mV.

On to `O=C(NCc1ccnc(OCC(F)(F)F)c1)N[C@@H]1CCc2c(F)cc(F)cc21` [Compound 176], for which, in experiment [3], the pEC50 is 5.96 and the “Kv7.2/7.3 ΔV1/2” value is 40.89 mV.

With `O=C(NCc1ccnc(OCC(F)(F)F)c1)NC[C@H]1COc2ccccc2C1` [Compound 201], in experiment [3], the pEC50 is 5.65 and the “Kv7.2/7.3 ΔV1/2” value stood at 27.95 mV.

In the case of `O=C(NCc1ccnc(OCC(F)(F)F)c1)N[C@@H]1COC[C@H]1Oc1ccccc1F` [Compound 243], in experiment [3], the pEC50 was 5.43 and the “Kv7.2/7.3 ΔV1/2” value worked out at 26.56 mV.

On to `O=C(NCc1ccnc(OCC(F)(F)F)c1)N[C@@H]1COC[C@H]1Oc1cccc(F)c1` [Compound 222], for which, in experiment [3], the pEC50 was 5.38 and the “Kv7.2/7.3 ΔV1/2” value was 28.1 mV.

On to `O=C(NCc1ccnc(OCC(F)(F)F)c1)N[C@H]1COC2(CC2)C1` [Compound 240], for which, in experiment [3], the pEC50 is 4.93 and the “Kv7.2/7.3 ΔV1/2” value is recorded as 46.27 mV.

Turning to `COc1cccc(N2CC[C@@H](NC(=O)NCc3ccnc(OCC(F)(F)F)c3)C2)c1` [Compound 194], in experiment [3], the pEC50 is 5.59 and the “Kv7.2/7.3 ΔV1/2” value was determined as 29.55 mV.

With `C[C@@H](NC(=O)NCc1ccnc(OCC(F)(F)F)c1)c1ccc(OC(F)(F)F)cc1` [Compound 238], in experiment [3], the pEC50 is 5.54 and the “Kv7.2/7.3 ΔV1/2” value was 24.31 mV.

As to `O=C(NCc1ccnc(OCC(F)(F)F)c1)N[C@H]1CCO[C@@H]1c1ccccc1` [Compound 197], in experiment [3], the pEC50 was 5.12 and the “Kv7.2/7.3 ΔV1/2” value is listed as 39.86 mV.

Turning to `O=C(NCc1ccnc(OCC(F)(F)F)c1)NCC12CC(C(F)(F)F)(C1)C2` [Compound 228], in experiment [3], the pEC50 is 6.01 and the “Kv7.2/7.3 ΔV1/2” value stood at 20.27 mV.

Turning to `O=C(NCc1ccnc(OCC(F)(F)F)c1)N[C@@H]1COC[C@H]1c1ccc(F)cc1` [Compound 229], in experiment [3], the pEC50 was 4.90 and the “Kv7.2/7.3 ΔV1/2” value amounted to 76.14 mV.

As for `COc1cccc2c1CCC[C@H]2NC(=O)NCc1ccnc(OCC(F)(F)F)c1` [Compound 183], in experiment [3], the pEC50 was 5.60 and the “Kv7.2/7.3 ΔV1/2” value is 43.65 mV.

With `O=C(NCc1ccnc(OCC(F)(F)F)c1)N[C@H]1CCSc2ccccc21` [Compound 175], in experiment [3], the pEC50 is 5.91 and the “Kv7.2/7.3 ΔV1/2” value came out at 20.52 mV.

`Cc1cccc2c1[C@H](NC(=O)NCc1ccnc(OCC(F)(F)F)c1)CC2` [Compound 168]: in experiment [3], the pEC50 was 5.65 and the “Kv7.2/7.3 ΔV1/2” value is reported as 37.25 mV.

With `COc1ccccc1N1CC[C@@H](NC(=O)NCc2ccnc(OCC(F)(F)F)c2)C1` [Compound 202], in experiment [3], the pEC50 was 5.36 and the “Kv7.2/7.3 ΔV1/2” value worked out at 26.02 mV.

For the molecule `O=C(NCc1ccnc(OCC(F)(F)F)c1)N[C@H]1CN(CC(F)(F)F)C[C@@H]1c1ccccc1` [Compound 231], in experiment [3], the pEC50 is below 4.52 and the “Kv7.2/7.3 ΔV1/2” value came to 49.96 mV.

With `O=C(NCc1ccnc(OCC(F)(F)F)n1)N[C@@H]1CCc2ccc(F)cc21` [Compound 167], in experiment [3], the pEC50 is 4.99 and the “Kv7.2/7.3 ΔV1/2” value was determined as 20.68 mV.

Regarding `Cc1cnc(COc2cc(CNC(=O)NCCC3(C(F)(F)F)CC3)ccn2)o1` [Compound 247], in experiment [3], the pEC50 is 5.30 and the “Kv7.2/7.3 ΔV1/2” value was determined as 24.56 mV.

For the molecule `O=C(NCc1ccnc(OCC(F)(F)F)c1)N[C@@H]1CCN(CC(F)(F)F)C1` [Compound 214], in experiment [3], the pEC50 was 5.05 and the “Kv7.2/7.3 ΔV1/2” value was 30.24 mV.

Take `C#CCOc1cc(CNC(=O)N[C@@H]2CCCc3c(F)cccc32)ccn1` [Compound 217]: in experiment [3], the pEC50 was 5.75 and the “Kv7.2/7.3 ΔV1/2” value worked out at 29.44 mV.

For the molecule `O=C(NCc1ccnc(OCC(F)(F)F)c1)NCC12CC(F)(CO1)C2` [Compound 239], in experiment [3], the pEC50 was 5.29 and the “Kv7.2/7.3 ΔV1/2” value came out at 20.11 mV.

Values taken from patent US20260207563A1, “UREA COMPOUNDS AS ACTIVATORS OF POTASSIUM CHANNELS KV7.2/7.3 USEFUL IN THE TREATMENT OF CNS AND PNS DISORDERS” (ANGELINI PHARMA S.P.A., priority 2022, published 2026).
